# In ChEMBL document CHEMBL5042514, “Picolylamine-functionalized benz[e]indole squaraine dyes: Synthetic approach, characterization and in vitro efficacy as potential anticancer phototherapeutic agents” (Eur J Med Chem, 2022):
# Calls of active or inactive are those of the source. No cut-off for these calls is given here.
# Columns and labels:
# [1] = Phototoxicity against human HeLa cells assessed as reduction in cell viability preincubated for 24 hrs followed by 7 mins of LED light irradiation by MTT assay; type: toxicity, cell-based; conditions: light or radiation study
# [2] = Phototoxicity against human NHDF cells assessed as reduction in cell viability preincubated for 24 hrs followed by 7 mins of LED light irradiation by MTT assay; type: toxicity, cell-based
# [3] = Selectivity ratio of IC50 for phototoxicity against human NHDF cells upon LED light irradiation to IC50 for phototoxicity against human MCF7 cells upon LED light irradiation; type: toxicity, cell-based; conditions: NHDF cells versus MCF7 cells, read-out: Ratio IC50
# Albumin = Albumin (Homo sapiens, UniProt P02768); experiment: Binding affinity to human serum albumin assessed as binding constant by fluorescence based assay
# [4] = Dark toxicity against human HeLa cells assessed as reduction in cell viability incubated for 24 hrs by MTT assay; type: cell-based
# [5] = Dark toxicity against human MCF7 cells assessed as reduction in cell viability incubated for 24 hrs by MTT assay; type: cell-based
# [6] = Dark toxicity against human Caco-2 cells assessed as reduction in cell viability incubated for 24 hrs by MTT assay; type: cell-based
# [7] = Phototoxicity ratio of IC50 for cytotoxicity against human NHDF cells assessed as reduction in cell viability in dark to IC50 for phototoxicity against human NHDF cells upon LED light irradiation; type: toxicity, cell-based; conditions: read-out: Ratio IC50
# [8] = Phototoxicity ratio of IC50 for cytotoxicity against human PC-3 cells assessed as reduction in cell viability in dark to IC50 for phototoxicity against human PC-3 cells upon LED light irradiation; type: toxicity, cell-based
# [9] = Phototoxicity against human MCF7 cells assessed as reduction in cell viability preincubated for 24 hrs followed by 7 mins of LED light irradiation by MTT assay; type: toxicity, cell-based; conditions: MCF7, light or radiation study
# [10] = Dark toxicity against human PC-3 cells assessed as reduction in cell viability incubated for 24 hrs by MTT assay; type: cell-based
# [11] = Phototoxicity against human PC-3 cells assessed as reduction in cell viability preincubated for 24 hrs followed by 7 mins of LED light irradiation by MTT assay; type: toxicity, cell-based; conditions: PC-3, light or radiation study
# [12] = Phototoxicity against human Caco-2 cells assessed as reduction in cell viability preincubated for 24 hrs followed by 7 mins of LED light irradiation by MTT assay; type: toxicity, cell-based; conditions: Caco-2, light or radiation study
# [13] = Dark toxicity against human NHDF cells assessed as reduction in cell viability incubated for 24 hrs by MTT assay; type: cell-based
# [14] = Phototoxicity ratio of IC50 for cytotoxicity against human Caco-2 cells assessed as reduction in cell viability in dark to IC50 for phototoxicity against human Caco-2 cells upon LED light irradiation; type: toxicity, cell-based
# [15] = Phototoxicity ratio of IC50 for cytotoxicity against human MCF7 cells assessed as reduction in cell viability in dark to IC50 for phototoxicity against human MCF7 cells upon LED light irradiation; type: toxicity, cell-based
# [16] = Selectivity ratio of IC50 for phototoxicity against human NHDF cells upon LED light irradiation to IC50 for phototoxicity against human HeLa cells upon LED light irradiation; type: toxicity, cell-based; conditions: NHDF cells versus HeLa cells, read-out: Ratio IC50
# [17] = Selectivity ratio of IC50 for phototoxicity against human NHDF cells upon LED light irradiation to IC50 for phototoxicity against human Caco-2 cells upon LED light irradiation; type: toxicity, cell-based; conditions: NHDF cells versus Caco-2 cells, read-out: Ratio IC50
# [18] = Selectivity ratio of IC50 for phototoxicity against human NHDF cells upon LED light irradiation to IC50 for phototoxicity against human PC-3 cells upon LED light irradiation; type: toxicity, cell-based; conditions: NHDF cells versus PC-3 cells, read-out: Ratio IC50
# [19] = Phototoxicity ratio of IC50 for cytotoxicity against human HeLa cells assessed as reduction in cell viability in dark to IC50 for phototoxicity against human HeLa cells upon LED light irradiation; type: toxicity, cell-based
# HeLa [20] = experiment: Induction of cell cycle arrest in human HeLa cells assessed as accumulation of hypodiploid cells in sub-G1 phase at 0.24 to 1 uM measured after 24 hrs in the absence of light by PI staining based flow cytometry analysis; type: functional; conditions: dose 0.24-1 µM
# HeLa [21] = experiment: Induction of morphological change in human HeLa cells assessed as cell shrinkage at 0.25 uM preincubated for 24 hrs followed by 7 mins of LED light irradiation and measured upto 48 hrs by microscopic analysis; type: functional, cell-based; conditions: time min <=4327
# HeLa [22] = experiment: Induction of apoptosis in human HeLa cells assessed as increase in DNA cleavage at 1 uM preincubated for 24 hrs followed by 7 mins LED light irradiation and measured after 24 hrs by PI staining based flow cytometry analysis; type: functional; conditions: time 2887 min, 48.12 h
# HeLa [23] = experiment: Induction of cell cycle arrest in human HeLa cells assessed as accumulation in S phase at 1 uM by PI staining based flow cytometry analysis (reference value: 32.14 %); type: functional
# HeLa [24] = experiment: Induction of morphological change in human HeLa cells assessed as rounded cell morphology at 0.25 uM preincubated for 24 hrs followed by 7 mins of LED light irradiation and measured upto 48 hrs by microscopic analysis; type: functional, cell-based; conditions: time min <=4327
# HeLa [25] = experiment: Induction of cell cycle arrest in human HeLa cells assessed as accumulation in S phase at 0.25 uM with red light radiation for 7 mins by PI staining based flow cytometry analysis (reference value: 32.09 %); type: functional
# HeLa [26] = experiment: Induction of cell cycle arrest in human HeLa cells assessed as accumulation of hypodiploid cells in sub-G1 phase at 0.25 to 1 uM measured after 24 hrs in the absence of light by PI staining based flow cytometry analysis; type: functional; conditions: dose 0.25-1 µM
# HeLa [27] = experiment: Induction of morphological change in human HeLa cells assessed as intracellular space dilation at 1 uM preincubated for 24 hrs followed by 7 mins of LED light irradiation and measured upto 48 hrs by microscopic analysis; type: functional, cell-based; conditions: time min <=4327
# HeLa [28] = experiment: Induction of cell cycle arrest in human HeLa cells assessed as accumulation in G0/G1 phase at 0.25 uM by PI staining based flow cytometry analysis (reference value: 67.03 %); type: functional
# [29] = Drug localization in lysosome of human HeLa cells at 1 uM incubated for 24 hrs by Green Fluorescent Protein based confocal laser scanning microscopy analysis; type: ADME, subcellular
# HeLa [30] = experiment: Induction of morphological change in human HeLa cells assessed as reduction in adhesion at 0.25 uM preincubated for 24 hrs followed by 7 mins of LED light irradiation and measured upto 48 hrs by microscopic analysis; type: functional, cell-based; conditions: time min <=4327
# HeLa [31] = experiment: Induction of cell cycle arrest in human HeLa cells assessed as accumulation in G2/M phase at 1 uM by PI staining based flow cytometry analysis (reference value: 4.79 %); type: functional
# HeLa [32] = experiment: Induction of cell cycle arrest in human HeLa cells assessed as accumulation in G0/G1 phase at 1 uM by PI staining based flow cytometry analysis (reference value: 67.03 %); type: functional
# HeLa [33] = experiment: Induction of cell cycle arrest in human HeLa cells assessed as accumulation in S phase at 0.25 uM by PI staining based flow cytometry analysis (reference value: 32.14 %); type: functional
# HeLa [34] = experiment: Induction of morphological change in human HeLa cells assessed as plasma membrane rupture at 1 uM preincubated for 24 hrs followed by 7 mins of LED light irradiation and measured upto 48 hrs by microscopic analysis; type: functional; conditions: time min <=4327
# [35] = Drug localization in mitochondria of human HeLa cells at 1 uM incubated for 24 hrs by Rhodamine 123 based confocal laser scanning microscopy analysis; type: ADME
# HeLa [36] = experiment: Induction of apoptosis in human HeLa cells at 0.25 uM preincubated for 24 hrs followed by 7 mins LED light irradiation and measured after 24 hrs by PI staining based flow cytometry analysis; type: functional; conditions: time 2887 min, 48.12 h
# HeLa [37] = experiment: Induction of cell cycle arrest in human HeLa cells assessed as accumulation in G0/G1 phase at 0.25 uM with red light radiation for 7 mins by PI staining based flow cytometry analysis (reference value: 63.18%); type: functional
# HeLa [38] = experiment: Induction of cell cycle arrest in human HeLa cells assessed as accumulation in G2/M phase at 0.25 uM with red light radiation for 7 mins by PI staining based flow cytometry analysis (reference value: 4.73 %); type: functional
# HeLa [39] = experiment: Induction of cell cycle arrest in human HeLa cells assessed as accumulation in G2/M phase at 0.25 uM by PI staining based flow cytometry analysis (reference value: 4.79 %); type: functional
# Albumin, sequence (P02768 whole entry): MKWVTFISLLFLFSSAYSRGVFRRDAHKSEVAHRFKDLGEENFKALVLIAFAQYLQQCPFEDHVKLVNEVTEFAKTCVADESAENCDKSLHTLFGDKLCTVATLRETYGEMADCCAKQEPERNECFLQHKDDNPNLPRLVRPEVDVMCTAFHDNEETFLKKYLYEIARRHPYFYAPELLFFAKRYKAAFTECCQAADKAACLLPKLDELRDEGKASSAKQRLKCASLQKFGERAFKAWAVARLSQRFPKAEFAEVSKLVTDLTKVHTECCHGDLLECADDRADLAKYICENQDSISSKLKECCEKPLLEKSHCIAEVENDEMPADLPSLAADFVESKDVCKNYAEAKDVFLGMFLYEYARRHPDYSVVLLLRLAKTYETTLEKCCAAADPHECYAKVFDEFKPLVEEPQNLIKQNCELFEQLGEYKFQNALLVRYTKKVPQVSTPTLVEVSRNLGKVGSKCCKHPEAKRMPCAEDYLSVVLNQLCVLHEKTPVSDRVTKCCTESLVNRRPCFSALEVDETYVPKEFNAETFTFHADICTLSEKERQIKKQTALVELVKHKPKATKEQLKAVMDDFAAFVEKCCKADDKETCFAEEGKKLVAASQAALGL
SMILES,IC50 [1],IC50 at 24 h [2],selectivity ratio [3],Kb (Albumin),IC50 at 24 h [4],IC50 at 24 h [5],IC50 at 24 h [6],selectivity ratio [7],Ratio IC50 [8],IC50 [9],IC50 at 24 h [10],IC50 [11],IC50 [12],IC50 at 24 h [13],Ratio IC50 [14],Ratio IC50 [15],selectivity ratio [16],selectivity ratio [17],selectivity ratio [18],Ratio IC50 [19],other results
CCCCCCN1/C(=C/C2=C(N(Cc3ccccn3)Cc3ccccn3)C(=C/C3=[N+](CCCCCC)c4ccc5ccccc5c4C3(C)C)/C2=O)C(C)(C)c2c1ccc1ccccc21.[I-],1.17 µM,0.695 µM,0.59,7.68 10^5/M,1.74 µM,1.52 µM,2.49 µM,1.4,1.1,1.19 µM,1.11 µM,0.967 µM,2.13 µM,1.01 µM,1.2,1.3,0.59,0.33,0.72,1.5,
CCCCCCN1/C(=C/C2=C(NCc3ccccn3)C(=C/C3=[N+](CCCCCC)c4ccc5ccccc5c4C3(C)C)/C2=O)C(C)(C)c2c1ccc1ccccc21.[I-],2.58 µM,1.28 µM,0.56,1.64 10^5/M,4.79 µM,3.1 µM,> 10 µM,3.4,1.3,2.29 µM,6.69 µM,1.53 µM,4.82 µM,4.3 µM,> 2.1,1.4,0.49,0.26,0.84,1.9,Activity (HeLa [20]): 1%
CCN1/C(=C/C2=C(N(Cc3ccccn3)Cc3ccccn3)C(=C/C3=[N+](CC)c4ccc5ccccc5c4C3(C)C)/C2=O)C(C)(C)c2c1ccc1ccccc21.[I-],0.113 µM,0.184 µM,1.23,5.92 10^5/M,0.449 µM,0.534 µM,0.328 µM,2.6,2.7,0.15 µM,0.393 µM,0.148 µM,0.092 µM,0.484 µM,3.6,3.6,1.63,2,,4,
CCN1/C(=C/C2=C([O-])C(=C/C3=[N+](CC)c4ccc5ccccc5c4C3(C)C)/C2=O)C(C)(C)c2c1ccc1ccccc21,0.245 µM,0.222 µM,0.96,2.01 10^5/M,> 10 µM,> 10 µM,> 10 µM,> 45,> 52.6,0.232 µM,> 10 µM,0.19 µM,0.332 µM,> 10 µM,> 30.1,> 43.1,0.91,0.67,1.17,> 40.8,Activity (HeLa [21]): Active; Activity (HeLa [22]): 98%; Activity (HeLa [23]): 25.92%; Activity (HeLa [24]): Active; Activity (HeLa [25]): 31.5%; Activity (HeLa [26]): 1%; Activity (HeLa [27]): Active; Activity (HeLa [28]): 68.96%; Drug uptake [29]: Not Active; Activity (HeLa [30]): Active; Activity (HeLa [31]): 3.61%; Activity (HeLa [32]): 70.47%; Activity (HeLa [33]): 25.84%; Activity (HeLa [34]): Active; Drug uptake [35]: Active; Activity (HeLa [36]): 17%; Activity (HeLa [37]): 58.79%; Activity (HeLa [38]): 9.71%; Activity (HeLa [39]): 5.19%
